Data reported in ChEMBL document CHEMBL1128713, “N-alkylated nitrogen-in-the-ring sugars: conformational basis of inhibition of glycosidases and HIV-1 replication” (J Med Chem, 1995).
Values after ≈ are worked out from the molar mass of the structure shown.

Experiments:
MT4 = experiment: Concentration giving 50% inhibition of HIV-1 induced cytopathogenicity in MT-4 cells; format: functional, cell-based, Homo sapiens
[1] = Competitive Inhibitory activity against Endoplasmic reticulum Alpha-Glucosidase II; parameters: species or system Rattus norvegicus
Alpha-mannosidase 2 [2] = biological target: T1, Alpha-mannosidase 2 (Rattus norvegicus, UniProt P28494); experiment: Competitive Inhibitory activity against Golgi Alpha-mannosidase II
T1 sequence (P28494 whole entry): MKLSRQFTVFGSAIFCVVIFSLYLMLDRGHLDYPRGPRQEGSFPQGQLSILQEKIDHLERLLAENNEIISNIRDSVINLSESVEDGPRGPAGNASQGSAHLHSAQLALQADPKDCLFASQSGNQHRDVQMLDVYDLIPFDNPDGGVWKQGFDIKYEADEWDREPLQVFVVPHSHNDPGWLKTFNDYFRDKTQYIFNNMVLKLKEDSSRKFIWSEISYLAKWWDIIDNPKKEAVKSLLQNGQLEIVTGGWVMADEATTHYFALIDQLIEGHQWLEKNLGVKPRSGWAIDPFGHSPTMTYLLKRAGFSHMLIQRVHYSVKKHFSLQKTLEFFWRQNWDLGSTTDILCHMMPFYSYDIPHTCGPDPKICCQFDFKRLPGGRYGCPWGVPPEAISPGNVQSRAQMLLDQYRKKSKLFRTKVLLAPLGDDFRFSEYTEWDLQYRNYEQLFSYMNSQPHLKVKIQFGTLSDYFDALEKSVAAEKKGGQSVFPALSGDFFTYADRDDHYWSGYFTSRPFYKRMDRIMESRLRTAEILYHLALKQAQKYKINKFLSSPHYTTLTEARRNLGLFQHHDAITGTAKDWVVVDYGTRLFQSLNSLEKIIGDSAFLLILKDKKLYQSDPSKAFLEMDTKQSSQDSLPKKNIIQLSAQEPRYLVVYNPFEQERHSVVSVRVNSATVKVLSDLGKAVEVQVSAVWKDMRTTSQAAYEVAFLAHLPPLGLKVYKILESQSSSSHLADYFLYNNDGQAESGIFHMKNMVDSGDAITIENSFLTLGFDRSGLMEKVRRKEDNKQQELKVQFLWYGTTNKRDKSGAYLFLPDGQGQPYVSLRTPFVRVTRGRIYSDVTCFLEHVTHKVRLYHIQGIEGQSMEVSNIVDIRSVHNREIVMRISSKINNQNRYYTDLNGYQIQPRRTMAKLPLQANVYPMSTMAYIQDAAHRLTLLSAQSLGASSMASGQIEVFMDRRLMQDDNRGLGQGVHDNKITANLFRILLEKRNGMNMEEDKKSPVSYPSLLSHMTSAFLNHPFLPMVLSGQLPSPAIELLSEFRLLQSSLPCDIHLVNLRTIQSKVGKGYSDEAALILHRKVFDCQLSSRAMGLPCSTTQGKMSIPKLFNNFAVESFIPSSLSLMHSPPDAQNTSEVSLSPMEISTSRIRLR

[3] = biological target: Lactase/phlorizin hydrolase (Rattus norvegicus, UniProt Q02401); experiment: Inhibition of Glycosidases (lactase)in rat intestinal brush border membranes by D-glucose oxidase-peroxidase method; format: cell membranes, Membrane
Alpha-mannosidase 2 [4] = biological target: T1, Alpha-mannosidase 2; experiment: Inhibition of golgi Alpha-mannosidase II in rat liver; format: tissue-based
MOLT-4 = experiment: Concentration giving 50% inhibition of HIV-1 induced cytopathogenicity in MOLT-4 cells; format: functional, cell-based, Homo sapiens
Mannosidase 2, alpha B1 = biological target: T2, Mannosidase 2, alpha B1 (Rattus norvegicus, UniProt Q6P762); experiment: Inhibition of lysosomal Alpha-mannosidase II in rat liver; format: tissue-based
T2 sequence (Q6P762 whole entry): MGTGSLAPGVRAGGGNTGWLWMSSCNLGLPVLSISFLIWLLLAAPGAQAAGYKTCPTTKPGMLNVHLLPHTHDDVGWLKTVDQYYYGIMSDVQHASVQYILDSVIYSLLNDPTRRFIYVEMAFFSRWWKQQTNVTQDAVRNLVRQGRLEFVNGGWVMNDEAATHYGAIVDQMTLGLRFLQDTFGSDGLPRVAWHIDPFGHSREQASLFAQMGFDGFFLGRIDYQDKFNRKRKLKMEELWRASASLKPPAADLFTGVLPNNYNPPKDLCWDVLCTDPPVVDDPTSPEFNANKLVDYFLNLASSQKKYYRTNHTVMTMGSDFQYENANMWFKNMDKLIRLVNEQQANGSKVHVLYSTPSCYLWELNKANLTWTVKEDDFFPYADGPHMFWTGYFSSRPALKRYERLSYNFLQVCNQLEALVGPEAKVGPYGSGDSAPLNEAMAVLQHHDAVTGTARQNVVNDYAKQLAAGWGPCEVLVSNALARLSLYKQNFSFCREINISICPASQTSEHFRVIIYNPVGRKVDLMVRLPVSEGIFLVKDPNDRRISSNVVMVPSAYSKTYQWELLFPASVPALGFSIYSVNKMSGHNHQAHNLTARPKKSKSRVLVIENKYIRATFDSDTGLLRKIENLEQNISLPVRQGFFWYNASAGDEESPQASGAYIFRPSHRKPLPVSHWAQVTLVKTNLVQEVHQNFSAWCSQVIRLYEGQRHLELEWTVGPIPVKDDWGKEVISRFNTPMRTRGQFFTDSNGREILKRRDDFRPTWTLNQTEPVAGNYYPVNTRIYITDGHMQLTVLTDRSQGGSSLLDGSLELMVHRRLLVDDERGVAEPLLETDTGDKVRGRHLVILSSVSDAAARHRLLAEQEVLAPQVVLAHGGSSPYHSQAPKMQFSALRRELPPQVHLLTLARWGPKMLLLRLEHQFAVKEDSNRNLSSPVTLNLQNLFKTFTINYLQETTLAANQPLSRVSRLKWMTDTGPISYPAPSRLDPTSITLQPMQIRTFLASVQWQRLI

[5] = biological target: T3, Sucrase-isomaltase, intestinal (Rattus norvegicus, UniProt P23739); experiment: Inhibition of Sucrase in rat intestinal brush border membranes by D-glucose oxidase-peroxidase method; format: cell membranes, Membrane
[6] = Inhibition of lysosomal Alpha-Glucosidase II in rat liver
[7] = Inhibition of endoplasmic reticulum Alpha-Glucosidase II in rat liver; format: tissue-based
[8] = biological target: T3, Sucrase-isomaltase, intestinal; experiment: Inhibition of Glycosidases (isomaltase)in rat intestinal brush border membranes by D-glucose oxidase-peroxidase method; format: cell membranes, Membrane
Alpha-mannosidase 2C1 = biological target: T4, Alpha-mannosidase 2C1 (Rattus norvegicus, UniProt P21139); experiment: Inhibition of soluble Alpha-mannosidase II in rat liver; format: tissue-based
T4 sequence (P21139 whole entry): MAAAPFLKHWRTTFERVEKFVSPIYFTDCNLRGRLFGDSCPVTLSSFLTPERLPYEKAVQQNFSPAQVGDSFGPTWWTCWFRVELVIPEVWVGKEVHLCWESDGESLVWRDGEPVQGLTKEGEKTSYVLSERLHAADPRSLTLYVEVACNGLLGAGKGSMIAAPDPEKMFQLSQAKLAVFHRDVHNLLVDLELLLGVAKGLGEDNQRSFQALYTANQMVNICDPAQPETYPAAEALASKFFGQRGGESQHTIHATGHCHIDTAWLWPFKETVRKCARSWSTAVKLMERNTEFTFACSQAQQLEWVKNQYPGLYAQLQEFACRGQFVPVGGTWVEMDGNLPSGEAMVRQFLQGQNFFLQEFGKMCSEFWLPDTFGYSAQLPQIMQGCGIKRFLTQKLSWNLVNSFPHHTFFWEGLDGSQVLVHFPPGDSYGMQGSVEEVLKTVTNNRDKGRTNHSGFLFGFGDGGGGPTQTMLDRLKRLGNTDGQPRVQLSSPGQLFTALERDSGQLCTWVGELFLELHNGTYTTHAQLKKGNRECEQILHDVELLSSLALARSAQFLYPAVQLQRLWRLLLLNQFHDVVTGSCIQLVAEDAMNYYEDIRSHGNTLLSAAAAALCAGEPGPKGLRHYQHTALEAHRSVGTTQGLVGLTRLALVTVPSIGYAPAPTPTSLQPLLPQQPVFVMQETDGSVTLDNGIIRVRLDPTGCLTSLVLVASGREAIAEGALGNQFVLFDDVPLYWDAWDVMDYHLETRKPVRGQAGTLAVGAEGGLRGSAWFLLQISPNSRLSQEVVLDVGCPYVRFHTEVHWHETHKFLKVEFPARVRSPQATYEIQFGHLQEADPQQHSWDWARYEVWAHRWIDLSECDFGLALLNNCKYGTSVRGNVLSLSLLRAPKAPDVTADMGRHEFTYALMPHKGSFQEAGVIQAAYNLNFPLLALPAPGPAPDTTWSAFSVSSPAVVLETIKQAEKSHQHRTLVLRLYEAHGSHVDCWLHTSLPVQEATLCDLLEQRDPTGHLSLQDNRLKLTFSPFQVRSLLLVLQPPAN

Trehalase = biological target: T5, Trehalase (Rattus norvegicus, UniProt O70282); experiment: Inhibition of Glycosidases (trehalase)in rat intestinal brush border membranes by D-glucose oxidase-peroxidase method; format: cell membranes, Membrane
T5 sequence (O70282 whole entry): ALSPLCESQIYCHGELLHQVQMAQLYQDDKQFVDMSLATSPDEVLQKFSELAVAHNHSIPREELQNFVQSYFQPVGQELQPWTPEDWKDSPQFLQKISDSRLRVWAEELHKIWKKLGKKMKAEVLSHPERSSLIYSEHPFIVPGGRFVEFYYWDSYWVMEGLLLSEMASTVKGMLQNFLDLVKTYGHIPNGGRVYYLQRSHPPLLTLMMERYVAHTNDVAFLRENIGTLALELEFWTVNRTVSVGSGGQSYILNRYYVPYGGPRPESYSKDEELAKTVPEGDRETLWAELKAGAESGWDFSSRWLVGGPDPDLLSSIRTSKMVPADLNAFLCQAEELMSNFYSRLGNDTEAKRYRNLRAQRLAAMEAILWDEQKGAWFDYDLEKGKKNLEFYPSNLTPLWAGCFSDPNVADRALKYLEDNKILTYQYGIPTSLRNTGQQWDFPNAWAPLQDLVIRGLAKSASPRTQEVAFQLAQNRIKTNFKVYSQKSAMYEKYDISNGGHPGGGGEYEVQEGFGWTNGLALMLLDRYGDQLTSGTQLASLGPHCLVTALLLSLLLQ

[9] = Inhibition of Cellobiase in rat intestinal brush border membranes by D-glucose oxidase-peroxidase method; format: cell membranes, Membrane

Sequence of Lactase/phlorizin hydrolase (Q02401 868-1928 limits assumed): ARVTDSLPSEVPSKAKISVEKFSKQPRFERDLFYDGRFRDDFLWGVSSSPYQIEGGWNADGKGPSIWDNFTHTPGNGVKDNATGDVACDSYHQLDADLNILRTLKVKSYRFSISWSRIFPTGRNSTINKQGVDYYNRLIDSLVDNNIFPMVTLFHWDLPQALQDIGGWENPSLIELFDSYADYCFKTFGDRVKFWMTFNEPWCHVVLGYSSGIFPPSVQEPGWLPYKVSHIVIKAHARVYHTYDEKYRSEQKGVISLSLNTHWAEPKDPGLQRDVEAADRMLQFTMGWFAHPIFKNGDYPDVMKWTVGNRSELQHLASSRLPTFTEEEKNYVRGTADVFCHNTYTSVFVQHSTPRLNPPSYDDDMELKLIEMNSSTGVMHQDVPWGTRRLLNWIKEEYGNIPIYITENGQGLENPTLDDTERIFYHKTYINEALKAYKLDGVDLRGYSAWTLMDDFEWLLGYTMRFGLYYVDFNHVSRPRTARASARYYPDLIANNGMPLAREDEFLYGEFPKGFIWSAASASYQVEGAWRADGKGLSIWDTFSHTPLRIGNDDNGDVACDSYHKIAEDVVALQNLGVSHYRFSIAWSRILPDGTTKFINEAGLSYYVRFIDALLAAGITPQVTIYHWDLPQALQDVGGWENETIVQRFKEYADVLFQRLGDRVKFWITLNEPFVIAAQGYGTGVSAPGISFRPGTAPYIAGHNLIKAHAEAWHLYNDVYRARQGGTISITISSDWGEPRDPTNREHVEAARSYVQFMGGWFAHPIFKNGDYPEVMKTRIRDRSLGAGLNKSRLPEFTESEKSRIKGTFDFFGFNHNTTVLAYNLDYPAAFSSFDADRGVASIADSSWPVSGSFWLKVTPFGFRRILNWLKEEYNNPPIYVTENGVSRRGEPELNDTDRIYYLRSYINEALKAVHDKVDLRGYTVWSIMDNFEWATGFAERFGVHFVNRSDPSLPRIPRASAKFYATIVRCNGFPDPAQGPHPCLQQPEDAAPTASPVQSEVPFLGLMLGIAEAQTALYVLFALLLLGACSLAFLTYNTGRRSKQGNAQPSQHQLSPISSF
T3 sequence (P23739 1-1013 limits assumed): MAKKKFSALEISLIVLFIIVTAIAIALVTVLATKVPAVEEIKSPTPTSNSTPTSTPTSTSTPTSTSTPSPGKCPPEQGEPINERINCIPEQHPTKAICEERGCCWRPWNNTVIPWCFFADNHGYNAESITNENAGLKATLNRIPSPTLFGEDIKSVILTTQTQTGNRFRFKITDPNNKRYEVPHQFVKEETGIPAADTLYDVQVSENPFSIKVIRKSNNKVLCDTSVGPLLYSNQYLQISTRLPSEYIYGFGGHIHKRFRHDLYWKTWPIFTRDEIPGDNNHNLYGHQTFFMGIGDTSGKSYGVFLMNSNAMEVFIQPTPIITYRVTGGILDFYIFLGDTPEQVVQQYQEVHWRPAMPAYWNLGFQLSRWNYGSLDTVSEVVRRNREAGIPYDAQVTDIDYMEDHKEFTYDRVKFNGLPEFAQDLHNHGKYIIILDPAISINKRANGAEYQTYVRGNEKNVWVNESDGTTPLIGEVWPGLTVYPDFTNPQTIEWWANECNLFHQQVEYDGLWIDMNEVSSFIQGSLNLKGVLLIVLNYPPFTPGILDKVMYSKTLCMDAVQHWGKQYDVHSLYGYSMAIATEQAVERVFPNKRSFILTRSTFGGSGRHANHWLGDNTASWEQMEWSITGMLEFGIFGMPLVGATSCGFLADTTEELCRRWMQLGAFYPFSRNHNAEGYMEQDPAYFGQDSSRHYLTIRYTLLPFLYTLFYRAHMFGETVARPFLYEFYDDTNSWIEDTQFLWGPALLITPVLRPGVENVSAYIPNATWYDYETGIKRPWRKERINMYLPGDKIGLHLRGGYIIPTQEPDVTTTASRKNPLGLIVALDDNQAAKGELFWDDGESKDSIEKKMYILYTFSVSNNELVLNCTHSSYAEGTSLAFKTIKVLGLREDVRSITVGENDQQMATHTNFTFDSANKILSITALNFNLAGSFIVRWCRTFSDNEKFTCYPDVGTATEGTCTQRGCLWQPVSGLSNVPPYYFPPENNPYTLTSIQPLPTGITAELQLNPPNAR
T3 sequence (P23739 1014-1841 limits assumed): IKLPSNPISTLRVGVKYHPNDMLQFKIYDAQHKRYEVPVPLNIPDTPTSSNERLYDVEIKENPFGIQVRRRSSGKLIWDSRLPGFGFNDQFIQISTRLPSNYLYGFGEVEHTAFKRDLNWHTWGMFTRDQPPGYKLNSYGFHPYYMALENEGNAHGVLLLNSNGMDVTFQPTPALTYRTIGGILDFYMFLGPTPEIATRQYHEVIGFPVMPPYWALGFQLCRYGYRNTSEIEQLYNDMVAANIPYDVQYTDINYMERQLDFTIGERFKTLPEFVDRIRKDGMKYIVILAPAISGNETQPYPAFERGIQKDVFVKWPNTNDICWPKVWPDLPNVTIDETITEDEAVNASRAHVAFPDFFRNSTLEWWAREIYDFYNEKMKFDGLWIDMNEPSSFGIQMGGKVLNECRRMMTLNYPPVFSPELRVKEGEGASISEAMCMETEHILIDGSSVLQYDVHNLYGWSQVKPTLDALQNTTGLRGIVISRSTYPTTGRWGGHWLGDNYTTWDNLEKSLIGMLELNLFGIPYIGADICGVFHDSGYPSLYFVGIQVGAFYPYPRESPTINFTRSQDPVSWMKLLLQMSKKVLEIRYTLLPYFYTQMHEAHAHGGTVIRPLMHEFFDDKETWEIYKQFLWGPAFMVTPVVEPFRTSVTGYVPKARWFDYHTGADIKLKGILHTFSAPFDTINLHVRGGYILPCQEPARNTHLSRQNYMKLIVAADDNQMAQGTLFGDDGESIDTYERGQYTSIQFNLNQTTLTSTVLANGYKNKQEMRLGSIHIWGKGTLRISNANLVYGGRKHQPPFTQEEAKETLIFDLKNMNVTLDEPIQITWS

Row | Compound | Ki [1] [µM] | Ki (Alpha-mannosidase 2 [2]) [µM] | IC50 [3] [µM] | IC50 (Alpha-mannosidase 2 [4]) [µM] | EC50 (MOLT-4) [µg/mL] | IC50 (Mannosidase 2, alpha B1) [µM] | IC50 [5] [µM] | IC50 [6] [µM] | IC50 [7] [µM] | IC50 [8] [µM] | IC50 (Alpha-mannosidase 2C1) [µM] | IC50 (Trehalase) [µM] | IC50 [9] [µM] | EC50 (MT4) [µg/mL]
1 | OC[C@H]1NC[C@@H](O)[C@@H]1O | 9.7 | 35 | 260 | 46 | > 100 |  |  | 130 | 20 |  |  | 25 | < 50 | > 100
2 | CCCCN1C[C@@H](O)[C@H](O)[C@H]1CO | 95 | 120 | < 50 | 130 | > 100 | < 50 | 270 | 750 | 200 | 340 | < 50 | < 50 | < 50 | > 100
3 | OC[C@H]1NC[C@H](O)[C@@H](O)[C@@H]1O [DUVOGLUSTAT] |  | < 50 |  | < 50 | > 100 |  |  | 0.4 |  |  |  |  |  | > 100
4 | CN1C[C@@H](O)[C@H](O)[C@H]1CO | 150 | 51 | < 50 | 64 | > 100 | 360 | 70 | 180 | 310 | 100 | < 50 | < 50 | < 50 | > 100

More lines, main results first:

Row | Ki [1] [µM] | Ki (Alpha-mannosidase 2 [2]) [µM] | IC50 [3] [µM] | IC50 (Alpha-mannosidase 2 [4]) [µM] | EC50 (MOLT-4) [µg/mL] | IC50 (Mannosidase 2, alpha B1) [µM] | IC50 [5] [µM] | IC50 [6] [µM] | IC50 [7] [µM] | IC50 [8] [µM] | IC50 (Alpha-mannosidase 2C1) [µM] | IC50 (Trehalase) [µM] | IC50 [9] [µM] | Compound | EC50 (MT4) [µg/mL]
5 | 5.8 | < 50 | 4.4 | < 50 | 100 (≈ 564 µM) | 1000 | 0.04 | 1.5 | 20 | 4.4 | 500 | 28 |  | CN1C[C@H](O)[C@@H](O)[C@H](O)[C@H]1CO | 69 (≈ 389 µM)
6 |  |  |  |  | > 100 | < 50 | 44 |  | < 50 | 91 | 260 |  |  | OC[C@H]1N[C@H](CO)[C@@H](O)[C@@H]1O | > 100
7 | 3.7 | < 50 |  | < 50 | 37 (≈ 169 µM) | < 50 |  | 5.3 | 15 |  | < 50 | 13 | < 50 | CCCCN1C[C@H](O)[C@@H](O)[C@H](O)[C@H]1CO | 49 (≈ 223 µM)
8 |  |  | < 50 | < 50 | > 100 | < 50 | 620 | 470 | < 50 | < 50 | 190 |  | < 50 | CN1[C@H](CO)[C@@H](O)[C@H](O)[C@H]1CO | > 100
9 |  |  | < 50 | < 50 | > 100 | < 50 | < 50 | < 50 | < 50 | < 50 | 850 |  | < 50 | CCCCN1[C@H](CO)[C@@H](O)[C@H](O)[C@H]1CO | > 100
